Assay results from paper PMC4754331, “Programming of metabolic effects in C57BL/6JxFVB mice by in utero and lactational exposure to perfluorooctanoic acid” (Archives of Toxicology, 2015).
Read-outs that look alike come from different tables or passages of the source.

Legend:
[1] = system: C57BL/6JxFVB hybrid mice; assay: Insulin tolerance test; assay type: in vivo; conditions: males and females; 300 µg/kg vs control; 20 weeks; data not shown
Protocol: (§1) One week later, at 20 weeks of age, an insulin tolerance test (ITT) was performed in the same animals as used for the GTT. Mice were not fasted to avoid low glucose baseline levels which, after an insulin injection, could lead to hypoglycemia. At the start of the experiment, a baseline blood sample was taken (0 min). […] The experiment was performed over two morning sessions, with 1.75 h between the first and last tested animal in each session, and animals were treated in a random order. At the age of 22–25 weeks, control and 300 µg/kg bw/d animals were used for a spontaneous locomotor activity test. After an acclimatization period of minimal 6 h, activity of the mice was continuously registered on four parallel platforms for 36 h (males) or 60 h (females), starting at the beginning of the dark phase (6.30 PM) of the first day.

[2] = system: ucp1; assay: ucp1 gene expression in brown adipose tissue (qPCR); assay type: in vivo, mice; conditions: males and females; 300 and 3000 µg/kg vs control; data not shown
Protocol: (§2) Some measurements included only control and one or two dose groups and could therefore not be analyzed as dose–responses. GTT was therefore evaluated by repeated-measures or nested (to account for litter covariance) two-way ANOVAs (Graphpad Prism 5.0, R) to detect differences at the different time points and between the areas under the curve (AUC). Activity measurement, ucp1 expression, WAT adipocyte size and the proxy for cell number were also tested with a nested ANOVA (R). Differences in distribution of BAT histopathology scores between experimental groups were tested for statistical significance in a two-tailed Fisher’s exact test.

[3] = system: C57BL/6JxFVB hybrid mice; assay: Tibia composition/function by pQCT; assay type: in vivo; conditions: for Emax: Mus musculus
[4] = system: rodents; parameters: method as in EFSA [2008]; conditions: basis of the TDI; ref EFSA [2008]; cited from earlier work
[5] = cited from earlier work
[6] = system: mice (CD-1, NMRI, Balb/c, C57BL/6); parameters: key to Time of effect: P: permanent effect on body weight throughout study; D: delayed (late onset) of effect; T: transient effect; E: effect observed during treatment; conditions: cited from earlier work
[7] = system: C57BL/6JxFVB hybrid mice; assay: Spontaneous locomotor activity test; assay type: in vivo; conditions: males and females; 300 µg/kg vs control; data not shown
Protocol: as §1
as §2, with “Differences in distribution of BAT histopathology scores between experimental groups were tested for statistical significance in a two-tailed Fisher’s exact test.” left out

[8] = Tolerable daily intake and human dietary exposure; parameters: species or system humans
[9] = Balb/c and C57BL/6, 1000-5000-10,000 µg/kg bw/d, oral gavage PND21-49 (5d/w), ref Yang et al. ([2009])
[10] = Balb/c, C57BL/6, 2500 (Balb), 7500 (BL6) µg/kg bw/d, oral gavage PND21-49 (5d/w), ref Zhao et al. ([2012])
[11] = CD-1, 5000 µg/kg bw/d, oral gavage GD1-17, GD8-17, GD12-17, ref White et al. ([2007])
[12] = CD-1, 10-100-1000 µg/kg bw/d, oral gavage GD10-17, ref Macon et al. ([2011])
[13] = CD-1, 10-100-1000 µg/kg bw/d, oral gavage PND18-20, ref Dixon et al. ([2012])
[14] = CD-1, 10–5000 µg/kg bw/d, oral gavage GD1-17, ref Hines et al. ([2009])
[15] = CD-1, 300-1000-3000 µg/kg bw/d, oral gavage GD1-17, ref Macon et al. ([2011])
[16] = CD-1, 1000, 3000, 5000, 10,000, 20,000, 40,000 µg/kg bw/d, oral gavage GD1-17, ref Lau et al. ([2006])
[17] = CD-1, 1000, 5000, 0/1000 + 5 ng/mL via drinking water, GD1-17, ref White et al. ([2011b])
[18] = CD-1, 1000–40,000 µg/kg bw/d, oral gavage GD1-17, ref Lau et al. ([2006])
[19] = CD-1, 3000, 5000 µg/kg bw/d, oral gavage GD1-17, ref White et al. ([2009])
[20] = CD-1, dose 3 [sic], 5 µg/kg bw/d, oral gavage GD1-17, ref Wolf et al. ([2007])
[21] = NMRI, 580-8,700 µg/kg bw/d, oral gavage PND10, ref Johansson et al. ([2008])

## O=C(O)C(F)(F)C(F)(F)C(F)(F)C(F)(F)C(F)(F)C(F)(F)C(F)(F)F [PFOA, Perfluorooctanoic acid]
[1]
  Glucose homeostasis: ITT: did not show an effect
[2]
  ucp1 expression in brown adipose tissue: did not show an effect
[3]; F1 females, CES 5 %
  Tibia ability to resist torsion: BMDL: 917 µg/kg bw/d
  Tibia ability to resist torsion: BMDU: 10,316 µg/kg bw/d
  Tibia bending strength: BMDL: 888 µg/kg bw/d
  Tibia bending strength: BMDU: 3371 µg/kg bw/d
  Tibia cortical density: BMDL: 2866 µg/kg bw/d
  Tibia cortical density: BMDU: 6949 µg/kg bw/d
  Tibia trabecular area: BMDL: 914 µg/kg bw/d
  Tibia trabecular area: BMDU: 3037 µg/kg bw/d
[3]; F1 males, CES 5 %
  Tibia cortical density: BMDL: 2635 µg/kg bw/d
  Tibia cortical density: BMDU: 27,520 µg/kg bw/d
[3]; F1 females, read-out: Tibia ability to resist torsion: max effect size
  Emax: -8.3%
[3]; F1 females, read-out: Tibia bending strength: max effect size
  Emax: -9.9%
[3]; F1 females, read-out: Tibia cortical density: max effect size
  Emax: -3.7%
[3]; F1 females, read-out: Tibia trabecular area: max effect size
  Emax: -10%
[3]; F1 males, read-out: Tibia cortical density: max effect size
  Emax: -3.4%
[4]
  BMDL10 for liver effects in rodents: 300 µg/kg bw/d
[5]; detected globally, ref Calafat et al. [2007]
  Level in adult human serum samples: 3.6 to 4.3 ng/mL
[5]; ref Grandjean et al. [2012]
  Level in serum of pregnant mothers: 2.6 to 4.0 ng/mL
[5]; ref de Cock et al. [2014]
  Level in cord plasma: 0.3 to 2.7 ng/mL
[6]; [9]
  Endpoint bw (age) F: ↓ PND45-46
  Other relevant effects of PFOA: PND49: delayed vaginal opening; ↑ abs/rel liver weight; inhibition mammary gland/uterine development
  Time of effect: E
[6]; [10]
  Endpoint bw (age) F: ↓ PND42-49 (BL6)
  Other relevant effects of PFOA: delayed/absent vaginal opening; lack of estrous cycling; ↓ovarian steroid hormonal synthetic enzyme levels
  Time of effect: E
[6]; C57BL/6/Bkl, 300 µg/kg bw/d, diet GD1-PND0, ref Onishchenko et al. ([2011])
  Other relevant effects of PFOA: M + F: changes in exploratory behavior; M: ↑ activity
[6]; C57BL/6, 5000 µg/kg bw/d, oral gavage PND21-49 (5d/w), ref Zhao et al. ([2010])
  Other relevant effects of PFOA: ↑ serum progesterone; ↑ mammary gland response to estrogen and/or progesterone
[6]; CD-1, 5000 µg/kg bw/d, oral gavage GD1-17, GD8-17, GD12-17, no follow-up of animals, ref White et al. ([2007])
  Time of effect: P^c
[6]; [11]
  Endpoint bw (age) F: ↓ PND1-20
  Endpoint bw (age) M: ↓ PND1-20
  Other relevant effects of PFOA: altered mammary gland development in dams + female pups
[6]; [12]
  Endpoint bw (age) F: – PND1-21
  Endpoint bw (age) M: – PND1-21
  Other relevant effects of PFOA: M + F: hepatomegaly; F: mammary gland developmental abnormalities
[6]; [13]
  Endpoint bw (age) F: – PND21
  Other relevant effects of PFOA: PND21: ↑ abs/rel uterine weight (lowest dose)
[6]; CD-1, 10, 100, 300, 1000, 3000, 5000 µg/kg bw/d, oral gavage GD1-17, ref Hines et al. ([2009])
  Endpoint bw (age) F: ↓ PND1,21 (high doses); ↑ 20-40w (low doses)
[6]; [14]
  Other relevant effects of PFOA: 21–33w: ↑ insulin; ↑ leptin (low doses); 18 m, weights abs/rel: ↓ abdominal white fat (high doses); ↑ interscapular fat (high doses); – liver
  Time of effect: D T
[6]; [15]
  Endpoint bw (age) F: – PND7-85
  Endpoint bw (age) M: – PND7-85
  Other relevant effects of PFOA: M + F: delayed mammary gland development
[6]; [16]
  Endpoint bw (age) F: ↓ PND1-25; – 6.5w-60w
  Endpoint bw (age) M: ↓ PND1-25; – 6.5w-60w
[6]; [17]
  Other relevant effects of PFOA: delay in mammary gland development and/or lactational differentiation (P0, F1, F2)
  Time of effect: T
[6]; CD-1, 1000, 5000, 0/1000 + 5 ng/mL via drinking water, oral gavage GD1-17, GD1-end of study (5 ng/mL groups), ref White et al. ([2011b])
  Endpoint bw (age) F: ↓ PND42 (F1); ↑ PND14-22 (F2)
[6]; [18]
  Other relevant effects of PFOA: M: earlier preputial separation
  Time of effect: T
[6]; [19]
  Endpoint bw (age) F: ↓ PND21-85
  Other relevant effects of PFOA: weaning age: abnormal (delay) mammary gland development; ↑ rel liver weight
  Time of effect: T
[6]; CD-1, 3000, 5000 µg/kg bw/d, oral gavage GD1-17, ref Wolf et al. ([2007])
  Endpoint bw (age) M: ↓ PND1-22; ↑ PND85 - 35w (dose 3000)
[6]; [20]
  Endpoint bw (age) F: ↓ PND1-22
  Other relevant effects of PFOA: M + F, PND22: ↑ abs/rel liver weight
  Time of effect: T; D (dose 3000)
[6]; [21]
  Endpoint bw (age) M: – PND10 + 28
  Other relevant effects of PFOA: 8/16w: neurotoxicity
[6]; ref Lau et al. [2006]
  Most sensitive developmental BMDL: 616 µg/kg bw/d
[7]
  Energy expenditure: physical activity: did not show an effect
[8]
  Factor by which the lowered TDI is higher than the human dietary exposure range in infants: 15
  TDI when applying the developmental BMDL of 46 µg/kg bw/d: 230 ng/kg bw/d
